Experimental data taken from patent EP3046573B1, “AMYLIN ANALOGUES” (Zealand Pharma A/S, priority 2013, dated 2015).
Where two headings read alike, the source gives them in different places. Numbered stars: 1 amine (or outer) side, 2 acyl side, 3 side chain; on linkers, the order of the positions; unused ones are H or OH. Bridge positions count the residues as written; N and C are the ends. Square brackets hold non-standard residues; d marks the D form. Peptide text beside a SMILES is read from it. * marks the point of attachment. C20 diacid = O=C(O)CCCCCCCCCCCCCCCCCCC(=O)*; γGlu = O=C(O)[C@H](CCC(=O)[*:2])N[*:1]; NMeI = CC[C@H](C)[C@H](NC)C(=O)O; Sar = CNCC(=O)O

Legend:
Sprague Dawley (SD) rats = assay: Acute food intake and body weight in normal Sprague Dawley rats; type: in vivo; conditions: vehicle-corrected, dose 30 nmol/kg sc, once; for Body weight loss (%) after 96 hours: mean ± SEM, n = 8
Protocol: Sprague Dawley (SD) rats were obtained from Taconic A/S, Denmark. The animals arrived at least 7 days before the study start to allow acclimatization to experimental conditions. From arrival and throughout the study, the rats were housed in groups of 2 (n = 2) in a light-, temperature- and humidity-controlled room (reversed 12/12 h light/dark cycle: lights turned off during day-time and on during night-time; temperature 20-22°C; relative humidity 50-80%). Animals had access ad libitum to food (Altromin™ 1324, Brogaarden A/S, Gentofte, Denmark) and water (domestic quality tap water with citric acid added to pH ∼ 3.6) during the entire study. Stratification of rats was based on body weight (BW) on a cage-by-cage basis; mean BWs per cage were used as the basis for pairing four cages together in a group (n = 8 per group). A vehicle group and positive control group were included in each set of tests. Rats were dosed subcutaneously (sc) once in the morning immediately before turning off the lights, using a body weight-corrected dose of peptide (30 nmol/kg). Dosing volume was 5 ml/kg. Food intake was recorded manually at t = 0 (pre-dose) and at t = 4, 7, 10, 24, 48, 72 and 96 hours after dosing. Body weight was measured daily.
Statistical analyses on body weight were performed using GraphPad™ Prism version 5. The measured parameters were compared using unpaired t tests. Differences were considered statistically significant at p < 0.05. Data are means ± SEM; n =8.

[1] = biological target: T1, human calcitonin receptor (hCTR2) (Homo sapiens, UniProt P30988); assay: hCTR2 assay: induction of cAMP (AlphaScreen cAMP Assay kit) in COS7 cells expressing hCTR2; type: cell-based
T1 construct: expressed in transfected cells
T1 sequence (P30988 25-474): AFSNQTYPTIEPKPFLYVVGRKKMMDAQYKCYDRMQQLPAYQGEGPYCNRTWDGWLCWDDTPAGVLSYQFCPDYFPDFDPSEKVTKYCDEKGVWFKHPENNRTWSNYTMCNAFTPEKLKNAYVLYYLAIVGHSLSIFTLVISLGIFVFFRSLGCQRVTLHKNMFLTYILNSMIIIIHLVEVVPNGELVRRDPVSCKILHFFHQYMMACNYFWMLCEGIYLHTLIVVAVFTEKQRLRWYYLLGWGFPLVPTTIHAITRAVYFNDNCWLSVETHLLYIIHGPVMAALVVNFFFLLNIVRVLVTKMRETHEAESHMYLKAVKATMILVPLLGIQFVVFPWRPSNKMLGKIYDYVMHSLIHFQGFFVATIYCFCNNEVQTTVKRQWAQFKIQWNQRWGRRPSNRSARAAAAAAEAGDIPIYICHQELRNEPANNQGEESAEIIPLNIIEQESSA
Summary of the method: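 Cells were seeded one day ahead, washed, then exposed to rising peptide concentrations for 15 min at 37° C in the presence of 100 µM IBMX. After lysis for 10 min at room temperature, cAMP was quantified by AlphaScreen and EC50 values derived by 4PL fitting.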

[2] = cAMP induction in COS7 cells expressing hCTR2, average of a minimum of 3 determinations, read-out: hCTR2 EC50

Row | Structure (SMILES) | Food intake inhibition (%) after 48 hours (Sprague Dawley (SD) rats) [%] | Body weight loss (%) after 96 hours (Sprague Dawley (SD) rats) [%] | EC50 [1] [nM] | EC50 [1, 2] [nM]
1 | CC[C@H](C)[C@@H](C(=O)N[C@@H](CC(C)C)C(=O)N[C@@H](CO)C(=O)N[C@@H](CO)C(=O)N[C@H](C(=O)N[C@@H](CC(N)=O)C(=O)N[C@H](C(=O)NCC(=O)N[C@@H](CO)C(=O)N[C@@H](CC(N)=O)C(=O)N[C@H](C(=O)N1CCC[C@H]1C(N)=O)[C@@H](C)O)C(C)C)[C@@H](C)O)N(C)C(=O)[C@H](C)NC(=O)CN(C)C(=O)[C@H](Cc1ccccc1)NC(=O)[C@H](CC(N)=O)NC(=O)[C@H](CC(N)=O)NC(=O)[C@H](CO)NC(=O)[C@H](CO)NC(=O)[C@H](Cc1c[nH]cn1)NC(=O)[C@H](Cc1c[nH]cn1)NC(=O)[C@H](CC(C)C)NC(=O)[C@H](Cc1ccccc1)NC(=O)[C@H](CCC(=O)O)NC(=O)[C@H](C)NC(=O)[C@H](CC(C)C)NC(=O)[C@H](CCCNC(=N)N)NC(=O)[C@H](CCC(N)=O)NC(=O)[C@@H](NC(=O)[C@H](C)NC(=O)[C@@H]1CSSC[C@H](NC(=O)[C@H](CCCNC(=N)N)NC(=O)CC[C@H](NC(=O)CCCCCCCCCCCCCCCCCCC(=O)O)C(=O)O)C(=O)N[C@@H](CC(N)=O)C(=O)N[C@@H]([C@@H](C)O)C(=O)N[C@@H](C)C(=O)N[C@@H]([C@@H](C)O)C(=O)N1)[C@@H](C)O [Compound 1, [19CD]-isoGlu-RC()NTATC()ATQRLAEFLHHSSNNF-Gly(Me)-A-Ile(Me)-LSSTNVGSNTP-NH2] ({C20 diacid-γGlu}-RCNTATCATQRLAEFLHHSSNNF[Sar]A[NMeI]LSSTNVGSNTP-NH2; disulfide 2-7) | 98 | 9 ± 1.8 |  | 
2 | CC[C@H](C)[C@@H](C(=O)N[C@@H](CC(C)C)C(=O)N[C@@H](CO)C(=O)N[C@@H](CO)C(=O)N[C@H](C(=O)N[C@@H](CC(N)=O)C(=O)N[C@H](C(=O)NCC(=O)N[C@@H](CO)C(=O)N[C@@H](CC(N)=O)C(=O)N[C@H](C(=O)N1CCC[C@H]1C(N)=O)[C@@H](C)O)C(C)C)[C@@H](C)O)N(C)C(=O)[C@H](C)NC(=O)CN(C)C(=O)[C@H](Cc1ccccc1)NC(=O)[C@H](CC(N)=O)NC(=O)[C@H](CC(N)=O)NC(=O)[C@H](CO)NC(=O)[C@H](CO)NC(=O)[C@H](CCCNC(=N)N)NC(=O)[C@H](Cc1c[nH]cn1)NC(=O)[C@H](CC(C)C)NC(=O)[C@H](Cc1ccccc1)NC(=O)[C@H](CCC(=O)O)NC(=O)[C@H](C)NC(=O)[C@H](CC(C)C)NC(=O)[C@H](CCCNC(=N)N)NC(=O)[C@H](CCC(N)=O)NC(=O)[C@@H](NC(=O)[C@H](C)NC(=O)[C@@H]1CSSC[C@H](NC(=O)[C@H](CCCNC(=N)N)NC(=O)CC[C@H](NC(=O)CCCCCCCCCCCCCCCCCCC(=O)O)C(=O)O)C(=O)N[C@@H](CC(N)=O)C(=O)N[C@@H]([C@@H](C)O)C(=O)N[C@@H](C)C(=O)N[C@@H]([C@@H](C)O)C(=O)N1)[C@@H](C)O [Compound 18, [19CD]-isoGlu-RC()NTATC()ATQRLAEFLHRSSNNF-Gly(Me)-A-Ile(Me)-LSSTNVGSNTP-NH2] ({C20 diacid-γGlu}-RCNTATCATQRLAEFLHRSSNNF[Sar]A[NMeI]LSSTNVGSNTP-NH2; disulfide 2-7) | 98 | 13 ± 0.8 | 0.06 | 
3 | CC[C@H](C)[C@@H](C(=O)N[C@@H](CC(C)C)C(=O)N[C@H](CO)C(=O)N[C@@H](CO)C(=O)N[C@H](C(=O)N[C@@H](CC(N)=O)C(=O)N[C@H](C(=O)NCC(=O)N[C@@H](CO)C(=O)N[C@@H](CC(N)=O)C(=O)N[C@H](C(=O)N1CCC[C@H]1C(N)=O)[C@@H](C)O)C(C)C)[C@@H](C)O)N(C)C(=O)[C@H](C)NC(=O)CN(C)C(=O)[C@@H](Cc1ccccc1)NC(=O)[C@H](CC(N)=O)NC(=O)[C@H](CC(N)=O)NC(=O)[C@H](CO)NC(=O)[C@H](CO)NC(=O)[C@H](CCCNC(=N)N)NC(=O)[C@H](Cc1c[nH]cn1)NC(=O)[C@H](CC(C)C)NC(=O)[C@H](Cc1ccccc1)NC(=O)[C@H](CCC(=O)O)NC(=O)[C@H](C)NC(=O)[C@H](CC(C)C)NC(=O)[C@H](CCCNC(=N)N)NC(=O)[C@H](CCC(N)=O)NC(=O)[C@@H](NC(=O)[C@H](C)NC(=O)[C@@H]1CSSC[C@H](NC(=O)[C@H](CCCCN)NC(=O)CC[C@H](NC(=O)CCCCCCCCCCCCCCCCCCC(=O)O)C(=O)O)C(=O)N[C@@H](CC(N)=O)C(=O)N[C@@H]([C@@H](C)O)C(=O)N[C@@H](C)C(=O)N[C@@H]([C@@H](C)O)C(=O)N1)[C@@H](C)O [Compound 72, [19CD]-isoGlu-KC()NTATC()ATQRLAEFLHRSSNN-DPhe-Gly(Me)-A-Ile(Me)-L-DSer-STNVGSNTP] ({C20 diacid-γGlu}-KCNTATCATQRLAEFLHRSSNN[dF][Sar]A[NMeI]L[dS]STNVGSNTP-NH2; disulfide 2-7) | 99 | 12 ± 1.2 | 0.071 | 
4 | CC[C@H](C)[C@@H](C(=O)N[C@@H](CC(C)C)C(=O)N1CCC[C@H]1C(=O)N1CCC[C@H]1C(=O)N[C@H](C(=O)N[C@@H](CC(N)=O)C(=O)N[C@H](C(=O)NCC(=O)N[C@@H](CO)C(=O)N[C@@H](CC(N)=O)C(=O)N[C@H](C(=O)N1CCC[C@H]1C(N)=O)[C@@H](C)O)C(C)C)[C@@H](C)O)N(C)C(=O)CN(C)C(=O)[C@H](Cc1ccccc1)NC(=O)[C@H](CC(N)=O)NC(=O)[C@H](CC(N)=O)NC(=O)[C@H](CO)NC(=O)[C@H](CO)NC(=O)[C@H](Cc1c[nH]cn1)NC(=O)[C@H](Cc1c[nH]cn1)NC(=O)[C@H](CC(C)C)NC(=O)[C@H](Cc1ccccc1)NC(=O)[C@H](CCC(=O)O)NC(=O)[C@H](C)NC(=O)[C@H](CC(C)C)NC(=O)[C@H](CCCNC(=N)N)NC(=O)[C@H](CCC(N)=O)NC(=O)[C@@H](NC(=O)[C@H](C)NC(=O)[C@@H]1CSSC[C@H](NC(=O)[C@H](CCCNC(=N)N)NC(=O)CC[C@H](NC(=O)CCCCCCCCCCCCCCCCCCC(=O)O)C(=O)O)C(=O)N[C@@H](CC(N)=O)C(=O)N[C@@H]([C@@H](C)O)C(=O)N[C@@H](C)C(=O)N[C@@H]([C@@H](C)O)C(=O)N1)[C@@H](C)O [Compound 176, [19CD]-isoGlu-RC()NTATC()ATQRLAEFLHHSSNNF-Gly(Me)-Ile(Me)-LPPTNVGSNTP-NH2] ({C20 diacid-γGlu}-RCNTATCATQRLAEFLHHSSNNF[Sar][NMeI]LPPTNVGSNTP-NH2; disulfide 2-7) |  |  |  | 0.12
5 | CC[C@H](C)[C@H](NC(=O)[C@@H]1CCCN1C(=O)CNC(=O)[C@H](Cc1ccccc1)NC(=O)[C@H](CC(N)=O)NC(=O)[C@H](CC(N)=O)NC(=O)[C@H](CO)NC(=O)[C@H](CO)NC(=O)[C@H](Cc1c[nH]cn1)NC(=O)[C@H](Cc1c[nH]cn1)NC(=O)[C@H](CC(C)C)NC(=O)[C@H](Cc1ccccc1)NC(=O)[C@H](CCC(=O)O)NC(=O)[C@H](C)NC(=O)[C@H](CC(C)C)NC(=O)[C@H](CCCNC(=N)N)NC(=O)[C@H](CCC(N)=O)NC(=O)[C@@H](NC(=O)[C@H](C)NC(=O)[C@@H]1CSSC[C@H](NC(=O)[C@H](CCCNC(=N)N)NC(=O)CC[C@H](NC(=O)CCCCCCCCCCCCCCCCCCC(=O)O)C(=O)O)C(=O)N[C@@H](CC(N)=O)C(=O)N[C@@H]([C@@H](C)O)C(=O)N[C@@H](C)C(=O)N[C@@H]([C@@H](C)O)C(=O)N1)[C@@H](C)O)C(=O)N[C@@H](CC(C)C)C(=O)N1CCC[C@H]1C(=O)N1CCC[C@H]1C(=O)N[C@H](C(=O)N[C@@H](CC(N)=O)C(=O)N[C@H](C(=O)NCC(=O)N[C@@H](CO)C(=O)N[C@@H](CC(N)=O)C(=O)N[C@H](C(=O)N1CCC[C@H]1C(N)=O)[C@@H](C)O)C(C)C)[C@@H](C)O [NN96, N-α-[(S)-4-carboxy-4-(19-carboxynonadecanoylamino)butyryl]-[Arg1,Glu14,His17,Pro37]-pramlintide, reference compound] ({C20 diacid-γGlu}-RCNTATCATQRLAEFLHHSSNNFGPILPPTNVGSNTP-NH2; disulfide 2-7) |  |  |  | 0.089
